The target of test [1] is T1, FLAG-tagged Vanin-1 (AA 22-493, T26I) (Homo sapiens, UniProt O95497, T26I).
T1 construct: FLAG-tagged Vanin-1 (AA 22-493, T26I, produced internally); FLAG; made in house
T1 sequence (O95497 22-493 T26I): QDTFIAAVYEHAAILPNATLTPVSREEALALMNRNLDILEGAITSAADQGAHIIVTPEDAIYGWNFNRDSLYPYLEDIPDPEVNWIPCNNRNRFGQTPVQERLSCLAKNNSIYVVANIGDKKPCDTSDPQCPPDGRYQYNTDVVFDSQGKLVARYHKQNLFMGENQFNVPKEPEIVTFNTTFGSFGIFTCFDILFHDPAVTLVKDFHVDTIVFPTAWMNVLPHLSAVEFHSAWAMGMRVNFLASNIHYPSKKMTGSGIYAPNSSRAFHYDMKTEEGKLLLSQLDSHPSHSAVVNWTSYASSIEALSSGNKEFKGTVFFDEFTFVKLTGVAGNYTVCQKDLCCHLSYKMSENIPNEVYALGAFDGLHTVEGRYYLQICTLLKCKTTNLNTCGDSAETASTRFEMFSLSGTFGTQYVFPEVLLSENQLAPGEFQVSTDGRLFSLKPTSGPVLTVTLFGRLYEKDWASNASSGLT
Put plainly: Vanin-1 enzymatic assay (pantothenic acid formation, RapidFire mass spectrometry). As to conditions: 0.1 nM FLAG-tagged Vanin-1, 3 μM D-pantethine, room temperature; geometric mean in case of multiple measurements; read-out: VNN-1 IC50. Format: biochemical. As to the method:
Description of Biological Properties Vanin-1 Enzymatic Assay:
The test compounds are dissolved in 100% DMSO at a concentration of 10 mM and in a first step diluted in DMSO to a concentration of 5 mM, followed by serial dilution steps in 100% DMSO. Dilution factor and number of dilution steps may vary according to needs. Typically 8 different concentrations by 1:5 dilutions are prepared, a further intermediate dilutions of the substances is carried out with assay buffer resulting in 1% final DMSO concentration in the assay.
0.1 nM of FLAG-tagged Vanin-1 (AA 22-493, T26I, produced internally) and test compounds are incubated at room temperature for 20 minutes in assay buffer (1 mM DTT, 0.0025% Brij-35, 50 mM HEPES, pH7.5). D-Pantethine (Sigma, Cat #P2125-5G) in assay buffer is added (final concentration 3 μM) and incubated for additional 30 minutes at room temperature. Total assay volume typically is 40 μl but might be adjusted according to needs. Reaction is stopped by adding equal volume of stop solution as the reaction mixture to reach 100 nM HD-pantothenic acid (as an internal standard) and 1% TFA. Assay plates are centrifuged for 2 minutes and the formation of pantothenic acid is detected by RapidFire Mass Spectrometry (mobile phase A: 0.1% formic acid and 0.01% trifluoroacetic acid in water; mobile phase B: 47.5% acetonitrile, 47.5% methanol, 0.1% formic acid and 0.01% trifluoroacetic acid in water) using a C18, 12 μL cartridge (Agilent Cat #G9205A).
The values given in Table I result from measurements of one or more samples. In case of multiple measurements the geometric mean values are given.

A further test concerns Pantetheinase (vanin). Put plainly: Human Whole Blood assay (vanin activity by pantothenic acid formation). The note with it: pantethine substrate, 5 min reaction at room temperature, geometric mean in case of multiple measurements, read-out: HWB IC50. Format: cell-based. As to the method: Human Whole Blood assay: Pantetheinase (vanin) converts panteheine into pantothenic acid and cysteamine. Accordingly, in the described protocol vanin activity is quantified by formation of pantothenic acid after pantetheine supplementation via pantethine. The assay is applicable to identify vanin inhibitors. Compound stocks are dissolved in DMSO at 10 mM. Further dilutions are performed in RPMI 1640 medium (Gibco, #A-10491-01) and final concentrations in the assay are 0.032 nM-500 nM.
Human blood is drawn into a blood bag (1% heparin, 50 I.E./mL). Blood is aliquoted into cavities of 96-deep-well plates at 290 μL and mixed with 10 μL compound solution or vehicle (30 sec at 1400 rpm on a shaker). Equilibration follows at room temperature, 250 rpm and for 30 min. The assay is started by adding 10 μL of substrate solution (2 μM pantethine in 1 mM DTT, 0.0025% Brij-35, 50 mM HEPES, pH7.5) to each well, except for some blank wells which receive […] substrate buffer (1 mM DTT, 0.0025% Brij-35, 50 mM HEPES, pH7.5) only. Samples are thoroughly shaken (30 sec, 1400 rpm) and reaction is allowed to take place at room temperature, 250 rpm and for 5 min. The reaction is stopped by addition of a vanin tool inhibitor in excess (BI-1 total conc. 10 μM). Centrifugation of the plate follows at 4° C., 665 G for 10 min. Then the blood plasma samples (100 μL) are transferred into another 96-deep-well plate and proteins are precipitated (5 min on ice) by adding 100 μL of ice cold precipitation solution (1 μM labelled pantothenic acid (di-β-alanine-13C6,15N2 calcium salt, Sigma, #705837) in acetonitrile).
Afterwards the plate is centrifuged (4° C., 3220 G, 10 min) and supernatants (50 μL) are collected into another 96-deep-well plate and mixed (10 sec, 1400 rpm) with 150 μL ice cold formic acid (0.1%, Carl Roth GmbH+Co.KG, #CP03.1). The formation of pantothenic acid is detected by RapidFire Mass Spectrometry. A TripleQuad 6500+(ABSciex, Germany) is equipped with an LC-1290 system, a RapidFire autosampler (Agilent, Germany) and a C18 cartridge Type C 12 μL (Agilent Cat #G9526-80000). Mobile phase A is consisting of 0.09% formic acid and 0.01% trifluoroacetic acid in water and mobile phase B of 0.09% formic acid and 0.01% trifluoroacetic acid in acetonitrile/methanol/water=47.5/47.5/5.

In the case of `CC(=O)N(C)[C@H]1CCN(C(=O)c2ccc(N[C@@H](C)c3cnc4[nH]ccc4c3)nc2)C1` [Example 5.9], the concentration for half-maximal inhibition (IC50) amounted to 0.18 nM in test [1] and 10.3 nM with Pantetheinase (vanin).
On the same counts, the results for `CC(=O)N(C)[C@H]1CCN(C(=O)c2ccc(NCc3cccc4[nH]ncc34)nc2)C1` [Example 5.3] are 0.09 nM and 11.2 nM.
As to `CC(=O)N(C)[C@H]1CCN(C(=O)c2ccc(N[C@@H](C)c3cccc4c3cnn4C)nc2)C1` [Example 5.2], the figures for the half-maximal inhibitory concentration (IC50) (in test [1]; with Pantetheinase (vanin)) were 0.07 nM and 1.68 nM, respectively.
`CN(C(=O)C1CCC1)[C@H]1CCN(C(=O)c2ccc(NCc3cnc4ccccn34)nc2)C1` [Example 4.1, N-[(3S)-1-{6-[({Imidazo[1,2-a]pyridin-3-yl}methyl)amino]pyridine-3-carbonyl}pyrrolidin-3-yl]-N-methylcyclobutanecarboxamide]: the IC50 amounted to 0.1 nM in test [1] and 1.63 nM in the test with Pantetheinase (vanin).

By IC50 is commonly meant the concentration needed to halve the response being measured.

The values are drawn from US12358910B2, “Heteroaromatic compounds as Vanin inhibitors” (Boehringer Ingelheim International GmbH, priority 2018, dated 2025).
